The record followed here is PMC10730845, “Endoxifen downregulates AKT phosphorylation through protein kinase C beta 1 inhibition in ERα+ breast cancer” (NPJ Breast Cancer, 2023).

This assay deals with MCF7AC1 xenograft tumors. Put plainly: Immunoblot of MCF7AC1 xenograft tumor lysates after in vivo treatment. Conditions: four weeks. Details: species or system mice. How it is done:
Protein lysates were prepared using the RIPA lysis buffer system (ChemCruz #sc-24948) and quantified using the DC^TM Protein Assay reagents (Bio-Rad #5000112). Equal amounts of protein lysates were separated on 10% Criterion gels (Bio-Rad #3450112), transferred to PVDF membranes (Bio-Rad #1620177), blocked in TBST-5% milk and probed with primary antibodies listed in Supplementary Table 5, at the indicated dilutions. Membranes were incubated with HRP-conjugated anti-rabbit (CST #7074) or anti-mouse (CST #7076) secondary antibodies and visualized using chemiluminescent West Pico (Thermo Scientific #34580) or West Femto (Thermo Scientific #34096) reagents and a Li-Cor Odyssey® XF imager. Protein lysates from the MCF7AC1 xenograft model were obtained from a previous study. Quantitation of the protein bands signal intensity was performed using the NIH ImageJ image analysis software (https://imagej.nih.gov/ij///index.html). For the quantitation of the phospho protein levels, we first normalized total protein levels to β-actin loading control and used these values to normalize the phospho protein levels and compared change in protein expression levels relative to vehicle control normalized to 1.0. For the quantitation of total protein levels, we normalized the total protein levels to β-actin and compared change in expression levels relative to vehicle control normalized to 1.0. All blots were processed in parallel and derived from the same experiments. Unprocessed immunoblot images are provided in Supplementary Figs. 9–13.
Supplementary Figure 2. […]
Supplementary Figure 6. […]
MK-2206 in CSS medium for 24 hours. IB assay of pAKTSer473, AKT, PARP, cleaved PARP and
β-actin. d, MCF7AC1 xenograft protein lysates were treated with the indicated drugs for four
weeks. […]
ANOVA for figs. (a), (b), (g), (h) and (i) and unpaired t test for fig. (e).
For orientation: A western blot detects proteins with antibodies after separation by electrophoresis.

With `CC/C(=C(\c1ccc(O)cc1)c1ccc(OCCNC)cc1)c1ccccc1` [ENDX, Z-endoxifen], for the setting “75 mg/kg”, the “Effect on AKT phosphorylated substrates in tumors” value is “reduced the levels of AKT phosphorylated substrates” and the “Effect on AKT^Thr308 phosphorylation in tumors” value is listed as “no appreciable impact on AKT^Thr308 phosphorylation”. In addition, for the setting “75 mg/kg, vs control treatment”, the “Effect on AKT^Ser473 phosphorylation in tumors” value is listed as “attenuated AKT^Ser473 phosphorylation”. Further, the “Dose increasing PARP cleavage in tumors” value (not at 25 mg/kg) was 75 mg/kg.
